Test results published in paper PMC12523303, “Multi-Fused S,N-Heterocyclic Compounds for Targeting α-Synuclein Aggregates” (Cells, 2025).

Assays:
[1] = target: T1, α-synuclein (α-syn) aggregates in PD brain homogenates (Homo sapiens, UniProt P37840); experiment: Two point screening assay (30 nM and 300 nM) vs [3H]asyn-44 in human PD brain homogenates; format: binding; conditions: for % [3H]asyn-44 remaining at 30 nM: 30 nM competitor; for % [3H]asyn-44 remaining at 300 nM: 300 nM competitor
T1 construct: Anterior cingulate cortex tissue from a Parkinson’s disease (PD) case; tissue Banner Sun Health Research Institute (Dr. Thomas Beach); host or cells: post-mortem human PD anterior cingulate cortex homogenate
Experimental: Screening assays for the test compounds were performed at two concentrations—30 nM and 300 nM—using unlabelled competitors in human PD brain homogenates against [^3H]asyn-44 as previously described. […] Each assay was conducted in triplicate for both concentrations to ensure reproducibility and statistical reliability.

[2] = target: T1, α-synuclein (α-syn) aggregates in PD brain homogenates; experiment: In vitro competition (Ki) assay vs [3H]asyn-44 in PD brain homogenates; format: binding; conditions: 1 nM [3H]asyn-44
Experimental: Anterior cingulate cortex tissue from a Parkinson’s disease (PD) case was generously provided by Dr. Thomas Beach at the Banner Sun Health Research Institute in Arizona, USA. […] Preparation of the frozen blocks for binding assays followed previously established protocols.
The equilibrium inhibition constants (Ki) for the unlabelled compounds were measured against [^3H]asyn-44 using our previously reported procedure. For these assays, frozen aliquots of homogenized human brain tissue (stored at −80 °C) were used. Homogenates were prepared at 10 mg/mL in phosphate-buffered saline, then diluted with 50 mM Tris buffer (pH 7.0) to a working concentration of 1 mg/mL.
Unlabeled competitor compounds were initially dissolved in DMSO at 400 μM, then diluted with Tris buffer to 20 μM, resulting in a 5% DMSO concentration. A serial dilution series (ranging from 6 μM to 4 nM) was prepared in the same 5% DMSO/Tris buffer solution to maintain consistent solvent conditions throughout the assay.
To perform the binding assay, 50 μL of the appropriately diluted competitor solution was mixed with 50 μL of [^3H]asyn-44 (1 nM final concentration) and 800 μL of Tris buffer containing 20% ethanol and 0.1% bovine serum albumin (BSA). Then, 100 μL of the 1 mg/mL brain homogenate was added, bringing the final tissue concentration to 100 μg/mL. The reaction mixtures were incubated at room temperature for 60 min before filtration through Whatman GF/B glass fibre filters using a Brandel M-24R cell harvester (Gaithersburg, MD, USA). Filters were washed three times with 3 mL of Tris buffer containing 20% ethanol and 0.1% BSA.
After washing, retained radioactivity was measured using CytoScint-ES scintillation fluid following thorough vortexing. Specific binding was calculated by correcting for nonspecific binding (as described later), and the amount of bound radioligand was derived from the filter-associated radioactivity and the molar activity of the tritiated compound.

Structure (SMILES)	% [3H]asyn-44 remaining at 30 nM [1] [%]	% [3H]asyn-44 remaining at 300 nM [1] [%]	Ki [2] [µM]
CC1CCN(c2ncc(-c3ccc4sc(-c5cccnc5)cc4n3)cc2F)C1 (stereo not shown) [LMD-001]	72	39	–
Cn1ccc(-c2cc3c(cnn3-c3cc(N4CCC(F)CC4)ncn3)s2)n1 [LMD-077]	67	20	–
FC1CCN(c2cnc(-c3ccc4sccc4n3)cn2)C1 (stereo not shown) [LMD-039]	57	27	–
Cn1ccc(N2Cc3nc(-c4cnc(N5CCC(F)C5)cn4)ccc3C2=O)n1 (stereo not shown) [LMD-017]	43	25	–
COc1cncc(-c2cc3nc(-c4cnc(N5CCC(F)C5)cn4)ccc3s2)c1 (stereo not shown) [LMD-015]	46	21	–
FC1CCN(c2ccc(-c3ccc4scc(-c5cccnc5)c4n3)cn2)C1 (stereo not shown) [LMD-041]	77	13	0.058
FC1CCN(c2ccnc(-n3cc4sc(-c5cccnc5)cc4n3)n2)C1 (stereo not shown) [LMD-061]	56	29	–
O=C1NCc2nc(-c3ccc(N4CCC(F)C4)nc3)ccc21 (stereo not shown) [LMD-064]	46	26	–
FC1CCN(c2ccnc(-n3cc4sc(-c5cccnc5)cc4n3)n2)CC1 [LMD-069]	49	31	–
Fc1cc(-c2ccc3sc(-c4cccnc4)cc3n2)cnc1N1CCCC1 [LMD-002]	57	21	–
F[C@@H]1CCN(c2cnc(-n3cc4sc(-c5cccnc5)cc4n3)cn2)C1 [LMD-033]	51	33	–
Cn1ccc(N2Cc3nc(-c4ccc(N5CCC(F)C5)nc4)ccc3C2=O)n1 (stereo not shown) [LMD-016]	91	48	–
Cn1ccc(-c2csc3ccc(-c4ccc(N5CCC(F)C5)nc4)nc23)n1 (stereo not shown) [LMD-063]	64	33	–
Cn1ccc(-c2cc3nn(-c4nccc(N5CCC(F)CC5)n4)cc3s2)n1 [LMD-075]	41	19	–
FC1CCN(c2ccc(-n3cc4sc(-c5cncs5)cc4n3)cn2)C1 (stereo not shown) [LMD-028]	81	38	–
FC1CCN(c2ccnc(-n3ncc4sc(-c5cccnc5)cc43)n2)C1 (stereo not shown) [LMD-070]	43	22	–
FC1CCN(c2ccc(-c3csc4ccc(-c5cccnc5)nc34)cn2)C1 (stereo not shown) [LMD-026]	56	25	–
Cn1cnc(N2Cc3nc(-c4ccc(N5CCC(F)C5)nc4)ccc3C2=O)c1 (stereo not shown) [LMD-023]	99	50	–
Cn1ccc(-c2cc3nc(-c4cnc(N5CCC(F)CC5)cn4)ccc3s2)n1 [LMD-060]	48	29	–
Cn1ccc(-c2cc3c(cnn3-c3ccc(N4CCC(F)C4)nn3)s2)n1 (stereo not shown) [LMD-072]	48	33	–

Structure (SMILES)	% [3H]asyn-44 remaining at 30 nM [1] [%]	% [3H]asyn-44 remaining at 300 nM [1] [%]	Ki [2] [µM]
Cn1ccc(-c2cc3nn(-c4cc(N5CCC(F)CC5)ncn4)cc3s2)n1 [LMD-074]	55	45	–
Cn1ccc(-c2cc3c(cnn3-c3nccc(N4CCC(F)CC4)n3)s2)n1 [LMD-076]	64	22	–
O=C1c2ccc(-c3ccc(N4CCC(F)C4)nc3)nc2CN1c1cccnc1 (stereo not shown) [LMD-019]	66	27	–
FC1CCN(c2cc(-n3ncc4sc(-c5cccnc5)cc43)ncn2)C1 (stereo not shown) [LMD-073]	71	29	–
Cn1ccc(-c2cc3nn(-c4cnc(N5CCC(F)C5)cn4)cc3s2)n1 (stereo not shown) [LMD-054]	58	15	0.024
FC1CCN(c2cnc(-n3cc4sc(-c5cncs5)cc4n3)cn2)C1 (stereo not shown) [LMD-029]	34	12	0.013
FC1CCN(c2cnc(-c3ccc4sc(-c5cncs5)cc4n3)cn2)CC1 [LMD-062]	43	32	–
Cn1ccc(-c2cc3nn(-c4cnc(N5CCC(F)CC5)cn4)cc3s2)n1 [LMD-066]	76	51	–
Cn1ccc(-c2cc3nc(-c4ccc(N5CCC(F)C5)nc4)ccc3s2)n1 (stereo not shown) [LMD-005]	112	64	–
FC1CCN(c2cc(-n3cc4sc(-c5cccnc5)cc4n3)ncn2)CC1 [LMD-068]	50	34	–
FC1CCN(c2ccc(-c3ccc4scc(Br)c4n3)cn2)C1 (stereo not shown) [LMD-040]	54	28	–
FC1CCN(c2cnc(-c3ccc4sc(-c5cccnc5)cc4n3)cn2)C1 (stereo not shown) [LMD-009]	45	17	–
Cn1ccc(-c2cc3nc(-c4cnc(N5CCC(F)C5)cn4)ccc3s2)n1 (stereo not shown) [LMD-013]	87	58	–
FC1CCN(c2ccc(-c3cc4nc(-c5cccnc5)ccc4s3)cn2)C1 (stereo not shown) [LMD-024]	72	13	0.054
Cn1ccc(-c2cc3nn(-c4ccc(N5CCC(F)C5)nn4)cc3s2)n1 (stereo not shown) [LMD-067]	86	28	–
FC1CCN(c2cnc(-c3ccc4sccc4n3)cn2)CC1 [LMD-036]	65	23	–
FC1CCN(c2cc(Cl)ncc2-c2ccc3sc(-c4cccnc4)cc3n2)C1 (stereo not shown) [LMD-049]	89	35	–
F[C@@H]1CCN(c2cnc(-c3ccc4sc(-c5cncs5)cc4n3)cn2)C1 [LMD-014]	45	20	–
FC1CCC(c2cnc(-n3cc4sccc4n3)cn2)C1 (stereo not shown) [LMD-031]	66	24	–
